The record followed here is patent US8614208B2, “Fused heterocyclic ring derivative and use thereof” (Takeda Pharmaceutical Company Limited, priority 2009, dated 2013).

The structures appear in SMILES notation.

T1 sequence (P56726 33-793): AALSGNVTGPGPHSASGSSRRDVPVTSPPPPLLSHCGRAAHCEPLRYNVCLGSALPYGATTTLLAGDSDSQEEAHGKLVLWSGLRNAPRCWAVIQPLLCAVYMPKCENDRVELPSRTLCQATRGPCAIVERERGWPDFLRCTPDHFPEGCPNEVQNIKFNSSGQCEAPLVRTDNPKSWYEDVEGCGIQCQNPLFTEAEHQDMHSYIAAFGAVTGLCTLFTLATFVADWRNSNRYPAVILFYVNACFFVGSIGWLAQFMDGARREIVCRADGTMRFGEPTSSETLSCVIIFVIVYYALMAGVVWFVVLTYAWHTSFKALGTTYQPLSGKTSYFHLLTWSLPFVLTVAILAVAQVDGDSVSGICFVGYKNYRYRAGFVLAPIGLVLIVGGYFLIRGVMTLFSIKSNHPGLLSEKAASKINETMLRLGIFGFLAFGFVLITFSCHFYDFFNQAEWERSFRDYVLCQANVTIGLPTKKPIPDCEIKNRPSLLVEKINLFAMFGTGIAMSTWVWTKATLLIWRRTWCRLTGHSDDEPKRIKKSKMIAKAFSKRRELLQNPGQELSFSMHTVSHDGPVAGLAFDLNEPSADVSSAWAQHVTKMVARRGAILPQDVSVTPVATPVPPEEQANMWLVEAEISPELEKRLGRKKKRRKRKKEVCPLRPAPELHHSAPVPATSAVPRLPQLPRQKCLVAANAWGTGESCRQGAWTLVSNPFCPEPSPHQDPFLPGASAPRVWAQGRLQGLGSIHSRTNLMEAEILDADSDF

The assay has as its target T1, Smo (Mus musculus, UniProt P56726).
T1 construct: endogenous in cells; host or cells: NIH-3T3 cells stably carrying the Gli reporter plasmid
Kind of assay: Gli reporter luciferase assay in NIH-3T3/Gli reporter cells stimulated with mouse Shh-N end fragment. The class given is cell-based. To be noted: NIH3T3; 1 μM compound; NIH-3T3/Gli reporter cells with mouse Shh-N culture supernatant, 48 hr; luciferase activity, control without compound as 100; read-out: inhibitory rate (%) at 1 μM. The protocol:
Gli reporter plasmid was constructed by inserting 8×Gli-binding site and chicken δ-crystalline promoter into the upstream of luc+ of pGL3 (Promega).
prepared in reference to the base sequence described in GenBank accession No.; X02187, and chicken genome DNA (Clontech) as a template. PCR reaction was performed using Pfu Turbo (Stratagene) and following the attached protocol. The obtained 108 bp fragment was digested with restriction enzymes BglII and HindIII, and inserted into BglII-HindIII site of pGL3 to give plasmid pGL3/δ-cry promoter.
As 8×Gli-binding site, a sequence containing eight 9-bp Gli bound consensus sequences (GACCACCCA) described in Yoon et al., J. Biol. Chem., vol. 273, pages 3496-3501 (1998) was prepared from synthetic DNA. That is, two synthetic DNAs,
were heat treated at 95° C. for 2 minutes, and incubated at 37° C. for 1 hr for annealing to give a double stranded DNA of the above-mentioned two synthetic DNAs. The obtained double stranded DNA was digested with restriction enzymes BglII and KpnI, and the obtained DNA fragment was inserted into BglII-KpnI site of pGL3/δ-cry promoter to construct plasmid pGL3/δ-cry promoter, 8×Gli binding site, i.e., Gli reporter plasmid.
HEK293 cells were grown in D-MEM medium (Invitrogen) containing 10% fetal bovine serum in a 10 cm dish and pcDNA3.1/mShh-N was introduced into the cells using FuGENE6 (Roche Applied Science). Thereafter, the HEK293 cells were cultured in a carbon dioxide gas incubator at 37° C. for 24 hours, and the medium was exchanged with D-MEM medium (Invitrogen) containing 2% fetal bovine serum. After culturing for 48 hr, a culture supernatant containing recombinant type mouse Shh-N end fragment was obtained by filtration using a filter ([…]).
Using D-MEM (Invitrogen) containing 10% fetal bovine serum, expression plasmid pcDNA3.1 and Gli reporter plasmid (pGL3/δ-cry promoter, 8×Gli binding site) produced by the method of Experimental Example 1 were introduced into NIH-3T3 cells grown in a 10 cm dish by the use of FuGENE6 (Roche Applied Science).
After culture for 24 hr, the cells were recovered, suspended in D-MEM medium containing 10% fetal bovine serum and supplemented with Geneticin (Life Technologies Oriental, Inc.) to a final concentration of 500 μg/ml, diluted to 10^4 cells/ml, plated on a 96 well plate, and cultured in a carbon dioxide gas incubator at 37° C. to give Geneticin resistant transformed cell line.
The obtained transformed cell line was cultured in a 96 well plate, mouse Shh-N end fragment obtained in Experimental Example 3 was added, and NIH-3T3/Gli reporter cell, which is a cell line capable of induction of luciferase expression, was selected.
NIH-3T3/Gli reporter cells cultured in D-MEM (Invitrogen) containing 10% fetal bovine serum were plated in a 96 well white plate at 1×10^4 cells/well, and cultured overnight in a carbon dioxide gas incubator at 37° C. The medium was removed, a compound (50 μl) and culture supernatant of mouse Shh-N end fragment-expressing HEK293 (D-MEM medium containing 2% fetal bovine serum, 50 μl) were added, and the cells were cultured for 48 hr in a carbon dioxide gas incubator at 37° C. Bright-Glo (Promega, 50 μl) was added, and the mixture was stirred, after which luciferase activity was measured by EnVision (PerkinElmer). The inhibition rate was calculated based on the luciferase activity of the control without addition of the compound as 100.
With `Cc1nc2c(c(OCC(F)(F)F)c(C(=O)NC3CCN(C(=O)CO)CC3)n2C)c(=O)n1CC(=O)c1ccccc1` [Example 1, N-[1-(hydroxyacetyl)piperidin-4-yl]-2,7-dimethyl-4-oxo-3-(2-oxo-2-phenylethyl)-5-(2,2,2-trifluoroethoxy)-4,7-dihydro-3H-pyrrolo[2,3-d]pyrimidine-6-carboxamide], the inhibition at 1 µM turned out to be 98%.

On to `CCOc1c(C(=O)NC2CCN(C(=O)CO)CC2)n(C)c2nc(C)n(CC(=O)c3ccccc3)c(=O)c12` [Example 2, 5-ethoxy-N-[1-(hydroxyacetyl)piperidin-4-yl]-2,7-dimethyl-4-oxo-3-(2-oxo-2-phenylethyl)-4,7-dihydro-3H-pyrrolo[2,3-d]pyrimidine-6-carboxamide], for which the inhibition at 1 µM came to 95%.

Regarding `Cc1nc2c(c(OC(C)C)c(C(=O)NC3CCN(C(=O)CO)CC3)n2C)c(=O)n1CC(=O)c1ccccc1` [Example 3, N-[1-(hydroxyacetyl)piperidin-4-yl]-2,7-dimethyl-5-(1-methylethoxy)-4-oxo-3-(2-oxo-2-phenylethyl)-4,7-dihydro-3H-pyrrolo[2,3-d]pyrimidine-6-carboxamide], the inhibition at 1 µM stood at 93%.

Turning to `Cc1nc2c(c(OCC(F)(F)F)c(C(=O)NC3CCN(C(=O)CO)CC3)n2C)c(=O)n1Cc1ccccc1` [Example 4, 3-benzyl-N-[1-(hydroxyacetyl)piperidin-4-yl]-2,7-dimethyl-4-oxo-5-(2,2,2-trifluoroethoxy)-4,7-dihydro-3H-pyrrolo[2,3-d]pyrimidine-6-carboxamide], the inhibition at 1 µM stood at 98%.

In the case of `Cc1nc2c(c(OCC(F)(F)F)c(C(=O)NC3CCN(C(=O)CO)CC3)n2C)c(=O)n1Cc1ccc(F)cc1` [Example 5, 3-(4-fluorobenzyl)-N-[1-(hydroxyacetyl)piperidin-4-yl]-2,7-dimethyl-4-oxo-5-(2,2,2-trifluoroethoxy)-4,7-dihydro-3H-pyrrolo[2,3-d]pyrimidine-6-carboxamide], the inhibition at 1 µM turned out to be 100%.

As to `COc1cccc(Cn2c(C)nc3c(c(OCC(F)(F)F)c(C(=O)NC4CCN(C(=O)CO)CC4)n3C)c2=O)c1` [Example 6, N-[1-(hydroxyacetyl)piperidin-4-yl]-3-(3-methoxybenzyl)-2,7-dimethyl-4-oxo-5-(2,2,2-trifluoroethoxy)-4,7-dihydro-3H-pyrrolo[2,3-d]pyrimidine-6-carboxamide], the inhibition at 1 µM worked out at 97%.

Regarding `COc1ccccc1Cn1c(C)nc2c(c(OCC(F)(F)F)c(C(=O)NC3CCN(C(=O)CO)CC3)n2C)c1=O` [Example 8, N-[1-(hydroxyacetyl)piperidin-4-yl]-3-(2-methoxybenzyl)-2,7-dimethyl-4-oxo-5-(2,2,2-trifluoroethoxy)-4,7-dihydro-3H-pyrrolo[2,3-d]pyrimidine-6-carboxamide], the inhibition at 1 µM stood at 96%.

With `Cc1nc2c(c(OCC(F)(F)F)c(C(=O)NC3CCN(C(=O)CO)CC3)n2C)c(=O)n1Cc1ccc(Cl)cc1` [Example 9, 3-(4-chlorobenzyl)-N-[1-(hydroxyacetyl)piperidin-4-yl]-2,7-dimethyl-4-oxo-5-(2,2,2-trifluoroethoxy)-4,7-dihydro-3H-pyrrolo[2,3-d]pyrimidine-6-carboxamide], the inhibition at 1 µM was found to be 95%.

With `Cc1nc2c(c(OCC(F)(F)F)c(C(=O)NC3CCN(C(=O)CO)CC3)n2C)c(=O)n1Cc1cccc(Cl)c1` [Example 10, 3-(3-chlorobenzyl)-N-[1-(hydroxyacetyl)piperidin-4-yl]-2,7-dimethyl-4-oxo-5-(2,2,2-trifluoroethoxy)-4,7-dihydro-3H-pyrrolo[2,3-d]pyrimidine-6-carboxamide], the inhibition at 1 µM was determined as 98%.

As for `CCCCCn1c(C)nc2c(c(OCC(F)(F)F)c(C(=O)NC3CCN(C(=O)CO)CC3)n2C)c1=O` [Example 11, N-[1-(hydroxyacetyl)piperidin-4-yl]-2,7-dimethyl-4-oxo-3-pentyl-5-(2,2,2-trifluoroethoxy)-4,7-dihydro-3H-pyrrolo[2,3-d]pyrimidine-6-carboxamide], the inhibition at 1 µM came to 96%.

For the molecule `Cc1nc2c(c(OCC(F)(F)F)c(C(=O)NC3CCN(C(=O)CO)CC3)n2C)c(=O)n1CCc1ccccc1` [Example 12, N-[1-(hydroxyacetyl)piperidin-4-yl]-2,7-dimethyl-4-oxo-3-(2-phenylethyl)-5-(2,2,2-trifluoroethoxy)-4,7-dihydro-3H-pyrrolo[2,3-d]pyrimidine-6-carboxamide], the inhibition at 1 µM turned out to be 98%.

With `CCc1nc2c(c(OCC(F)(F)F)c(C(=O)NC3CCN(C(=O)CO)CC3)n2C)c(=O)n1CC(=O)c1ccccc1` [Example 13, 2-ethyl-N-[1-(hydroxyacetyl)piperidin-4-yl]-7-methyl-4-oxo-3-(2-oxo-2-phenylethyl)-5-(2,2,2-trifluoroethoxy)-4,7-dihydro-3H-pyrrolo[2,3-d]pyrimidine-6-carboxamide], the inhibition at 1 µM came to 97%.

With `Cc1nc2c(c(OCC(F)(F)F)c(C(=O)NC3CCN(C(=O)CO)CC3)n2C)c(=O)n1Cc1ccccc1Cl` [Example 14, 3-(2-chlorobenzyl)-N-[1-(hydroxyacetyl)piperidin-4-yl]-2,7-dimethyl-4-oxo-5-(2,2,2-trifluoroethoxy)-4,7-dihydro-3H-pyrrolo[2,3-d]pyrimidine-6-carboxamide], the inhibition at 1 µM stood at 95%.

For the molecule `Cc1nc2c(c(OCC(F)(F)F)c(C(=O)NC3CCN(C(=O)CO)CC3)n2C)c(=O)n1CCc1ccc(F)cc1` [Example 15, 3-[2-(4-fluorophenyl)ethyl]-N-[1-(hydroxyacetyl)piperidin-4-yl]-2,7-dimethyl-4-oxo-5-(2,2,2-trifluoroethoxy)-4,7-dihydro-3H-pyrrolo[2,3-d]pyrimidine-6-carboxamide], the inhibition at 1 µM is 97%.

Take `CCc1nc2c(c(OCC(F)(F)F)c(C(=O)NC3CCOCC3)n2C)c(=O)n1CC(=O)c1ccccc1` [Example 16, 2-ethyl-7-methyl-4-oxo-3-(2-oxo-2-phenylethyl)-N-(tetrahydro-2H-pyran-4-yl)-5-(2,2,2-trifluoroethoxy)-4,7-dihydro-3H-pyrrolo[2,3-d]pyrimidine-6-carboxamide]: the inhibition at 1 µM was determined as 97%.

Regarding `CCc1nc2c(c(OCC(F)(F)F)c(C(=O)NC3CCN(C(=O)CO)CC3)n2C)c(=O)n1Cc1cccc(Cl)c1` [Example 17, 3-(3-chlorobenzyl)-2-ethyl-N-[1-(hydroxyacetyl)piperidin-4-yl]-7-methyl-4-oxo-5-(2,2,2-trifluoroethoxy)-4,7-dihydro-3H-pyrrolo[2,3-d]pyrimidine-6-carboxamide], the inhibition at 1 µM was determined as 98%.

`CCOc1c(C(=O)NC2CCN(C(=O)CO)CC2)sc2nc(C)n(CC(=O)c3ccccc3)c(=O)c12` [Example 18, 5-ethoxy-N-[1-(hydroxyacetyl)piperidin-4-yl]-2-methyl-4-oxo-3-(2-oxo-2-phenylethyl)-3,4-dihydrothieno[2,3-d]pyrimidine-6-carboxamide]: the inhibition at 1 µM was found to be 97%.

Take `CCc1nc2c(c(OCC(F)(F)F)c(C(=O)NC3CC[S+]([O-])CC3)n2C)c(=O)n1CC(=O)c1ccccc1` (stereo not shown) [Example 21, 2-ethyl-7-methyl-N-(1-oxidetetrahydro-2H-thiopyran-4-yl)-4-oxo-3-(2-oxo-2-phenylethyl)-5-(2,2,2-trifluoroethoxy)-4,7-dihydro-3H-pyrrolo[2,3-d]pyrimidine-6-carboxamide]: the inhibition at 1 µM came to 97%.

Consider `CCc1nc2c(c(OC(C)C)c(C(=O)NC3CCN(C(=O)CO)CC3)n2C)c(=O)n1CC(=O)c1ccccc1` [Example 22, 2-ethyl-N-[1-(hydroxyacetyl)piperidin-4-yl]-7-methyl-5-(1-methylethoxy)-4-oxo-3-(2-oxo-2-phenylethyl)-4,7-dihydro-3H-pyrrolo[2,3-d]pyrimidine-6-carboxamide], for which the inhibition at 1 µM was 98%.
